The numbers were not newly measured in patent US20220125854A1, “PREPARATION AND EXTENDED CULTURE OF VASCULAR ENDOTHELIAL PROGENITOR CELL” (PUBLIC UNIVERSITY CORPORATION NAGOYA CITY UNIVERSITY, priority 2019, published 2022), which cites them from elsewhere.

Holding throughout (details): report
Series [1] relates to ECs derived from iPS cells.
The subject of series [2] is ECs derived from ES cells.
The subject of another series is HUVECs.

In the case of `C[C@@H](N)[C@H]1CC[C@H](C(=O)Nc2ccncc2)CC1` [Y-27632], the “proliferation potency of ECs derived from iPS cells” value in series [1] is on record as “enhancing the proliferation potency”.
As to `NC(=O)c1ccc(-c2nc(-c3ccccn3)c(-c3ccc4c(c3)OCO4)[nH]2)cc1` [SB 43152], the “proliferation potency of ECs derived from ES cells” value in series [2] is “enhances the proliferation potency”.
For the compound `Cc1c[nH]c(-c2cnc(NCCNc3ccc(C#N)cn3)nc2-c2ccc(Cl)cc2Cl)n1` [CHIR 99021], in the series on HUVECs, the “proliferation potency of HUVECs” value is “enhances the proliferation potency”.
